One data set relates to monkeys. The following applies: one monkey; mean survival 25 months; cited from earlier work.
The subject of data set [1] is Fisher 344 rats. The following applies: same dose of deprenyl; cited from earlier work.
Data set [2] concerns Fisher 344 rats. The following applies: cited from earlier work.
The test system of the next data set is Drosophila. As to conditions: controlled study; cited from earlier work.
A further data set relates to rats. The following applies: treatment from age 96 weeks to end of life; control 147+/−1; cited from earlier work.
Data set [3] concerns C57B6 mice. As to conditions: chronic treatment starting at 18 months of age; cited from earlier work.
Data set [4] concerns C57B6 mice. It counts as in vivo. The following applies: oral C3 from 12 months of age to end of life, versus control.
Experimental: The date of spontaneous death for each mouse was recorded, and used to calculate the lifespan. Lifespan of each mouse was calculated in months because mice received from the NIA rodent colony have their birth month, but not their specific birth date, recorded. Average survival was calculated for each treatment and the mean lifespans were compared using a t-test with significance set to p<0.05 (actual p=0.033).
Twelve month old C57B6NIH male and female mice (equal numbers) were purchased from the National Institute on Aging (NIA) Aging Rodent Colony. Mice shipped from this colony were not selected in any way for health, tumors or other disabilities, and all mice obtained from the colony were subsequently enrolled in the study. […]
Solution A or solution B was placed in the water bottles, and solutions were topped-off twice weekly, and filtered to remove any particulates biweekly by an individual blind to the identity of the solutions. […] Mice were allowed to die spontaneously, and their date of death were recorded by the Animal Housing Facility staff as part of the normal operating procedure of the facility. […] When animals died, the cage number, identity of the animal, and the date of death were recorded on the death notice, which was then sent to the laboratory, where the information was entered into the database.
The nature of data set [5]: Plasma pharmacokinetics and tissue distribution in mice. From the text: The above dosing information is based on a pharmokinetics study carried out in mice, toxicity testing in mice and toxicity testing in rats.
Data set [6] in a line: Reactivity of C3 with superoxide. It counts as biochemical. The following applies: calculated. From the text: Because many important biological reactions generate reactive oxygen species intentionally, or as unwanted toxic by-products, antioxidant molecules capable of supplementing the antioxidant defenses of cells as potential therapeutic agents are therapeutically useful. […] These novel carboxyfullerene compositions have antioxidant properties.

The nature of data set [7]: Hydration of freeze dried sodium salt. The format is physicochemical. As to conditions: dry weight divided by expected weight for complete neutralization; freeze dried 4 days.
A short description of another data set: Solubility. It counts as physicochemical. From the text: The progress of the reaction was monitored by HPLC (Protocol 2).
Data set [8] is described as follows: Thermal stability in 1:1 acetonitrile:water at 60°. It counts as physicochemical. The following applies: for Hexa, percent of injected compound (HPLC): 60° C. From the text: The composition was monitored by HPLC, using protocols 2 and 4 (see Table 1).

The values below come from US7145032B2, “Therapeutic malonic acid/acetic acid C60 tri-adducts of buckminsterfullerene and methods related thereto” (priority 2002, dated 2006).

Regarding `O=CC[C@@H](O)[C@H](O)[C@H](O)CO` [2-deoxyglucose], the “survival of a treated monkey” value in the data set with monkeys is on record as 38 months.

With `C#CCN(C)[C@H](C)Cc1ccccc1` [deprenyl], in the data set on Fisher 344 rats [1], the “effect on mortality and lifespan” value was “greater mortality and shortened lifespan”. Also, the increase in longevity with Fisher 344 rats [2] (not statistically significant) is 7%. The “mean survival of treated animals” value with Fisher 344 rats [2] (treatment from 18 months of age, controls 28 months) is 30 months. Besides, in the data set on Drosophila, the effect on lifespan result is recorded as “did not show an increase in lifespan”. Moreover, in the data set with rats, the “lifespan of treated rats” value was 198+/−2 weeks. Moreover, the survival benefit entry with C57B6 mice [3] was “failed to show any survival benefit”.

Take “e,e,e tris malonic acid C60 [Compound C3]”: the “increase in the lifespan” value in the data set with C57B6 mice [4] is recorded as “approximately 20%”. In [5], the route of clearance entry is “excretion through both the liver and kidney”. Further, in data set [5] (various times after ip administration), the “tissue levels / distribution” value is “accumulation through the liver and kidney”. Further, the “rate constant of C3 reaction with superoxide” value in [6] is 3e+06 M⁻¹ s⁻¹. In addition, the “Hydration of Na salt” value in data set [7] was 1.31. Also, the “Solubility Sodium salt” value in the data set “Solubility” (calculated for the acid, unit not printed for this column (neighbour: mg/ml)) was >450^6. In addition, the “Solubility Water” value in “Solubility” (uv of liquid portion of a saturated solution) is reported as >454^6 mg/ml. In addition, the “Thermal Stability # of products” value in [8] (60°) is given as 10. Also, the “Hexa, percent of injected compound (HPLC)” value in [8] (incubation 5.5 h) worked out at 2.6%; in data set [8] (incubation […]), 9.2%; in data set [8] (incubation […], 97.4% at 0 h), 40.5%.
